Compound: CC1=CC(=C(N1C2=CC=C(C=C2)Cl)C)C(=O)CN3CCCCC3 [IU1-47] + CS(=O)(=O)CCNCc1ccc(-c2ccc3ncnc(Nc4ccc(OCc5cccc(F)c5)c(Cl)c4)c3c2)o1 [Lapatinib] (partner 2 µM)
Test: relative viability (nuclei count vs DMSO), 5 days (fraction); higher = more cells survive
Conditions: first compound 0.08 µM
Outline: (§1)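 Lung cancer cell lines were pin-tool dosed in 1536-well plates on the day after seeding, with either a lone drug or a fixed anchor-drug dose plus five library-drug doses (not always all listed) in √10 steps. Nuclei were counted on 4× images after 5 days. Relative viability is the ratio of treated-well to vehicle-well nuclei counts, with each value a median of duplicate plates.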

In order of rising relative viability:
1. EBC-1  0.214
2. H3255  0.242
3. NCI-H2170  0.286
4. COR-L 105  0.312
5. SK-MES-1  0.5
6. NCI-H1793  0.525
7. NCI-H1666  0.613
8. NCI-H2085  0.7
9. NCI-H1650  0.755
10. NCI-H727  0.762
11. NCI-H520  0.774
12. LOU-NH91  0.784
13. NCI-H2126  0.802
14. NCI-H1993  0.82
15. NCI-H838  0.922
16. LU99A  0.933
17. EMC-BAC-2  0.947
18. NCI-H1299  0.962
19. NCI-H1395  0.968
20. HCC-44  0.985
21. A549  0.987
22. HCC-366  1.04
23. NCI-H596  1.04
24. NCI-H2405  1.04
25. NCI-H2087  1.07
26. SW 1573  1.08
27. Calu-6  1.14
28. HOP-62  1.14
29. LK-2  1.15
30. COR-L23  1.19
31. NCI-H1703  1.21

Same assay, conditions: first compound 0.253 µM

In order of rising relative viability:
1. EBC-1  0.216
2. H3255  0.242
3. NCI-H2170  0.297
4. COR-L 105  0.405
5. SK-MES-1  0.503
6. NCI-H1793  0.594
7. NCI-H1666  0.658
8. NCI-H1650  0.717
9. NCI-H1993  0.754
10. NCI-H2126  0.767
11. NCI-H2085  0.77
12. NCI-H520  0.858
13. LOU-NH91  0.877
14. NCI-H838  0.889
15. HCC-366  0.938
16. EMC-BAC-2  0.944
17. NCI-H1395  0.96
18. NCI-H1299  0.982
19. HOP-62  1.01
20. HCC-44  1.03
21. SW 1573  1.06
22. LU99A  1.07
23. IA-LM  1.08
24. A549  1.1
25. NCI-H596  1.11
26. COR-L23  1.12
27. NCI-H2405  1.12
28. NCI-H1703  1.2
29. Calu-6  1.23
30. LK-2  1.26
31. NCI-H2087  1.27

Same assay, conditions: first compound 0.8 µM

In order of rising relative viability:
1. EBC-1  0.218
2. H3255  0.256
3. NCI-H2170  0.289
4. COR-L 105  0.382
5. SK-MES-1  0.541
6. NCI-H1666  0.621
7. NCI-H1793  0.648
8. NCI-H1993  0.741
9. NCI-H2126  0.807
10. LOU-NH91  0.812
11. IA-LM  0.832
12. SW 1573  0.894
13. A549  0.92
14. NCI-H1650  0.935
15. NCI-H2085  0.941
16. LK-2  0.963
17. EMC-BAC-2  0.966
18. NCI-H1299  0.975
19. NCI-H520  1
20. NCI-H596  1.02
21. NCI-H1703  1.03
22. COR-L23  1.07
23. HCC-44  1.07
24. NCI-H1395  1.08
25. NCI-H2405  1.1
26. NCI-H727  1.11
27. Calu-6  1.11
28. HOP-62  1.12
29. NCI-H2087  1.16
30. LU99A  1.16
31. NCI-H838  1.23
32. HCC-366  1.26

Same assay, conditions: first compound 2.53 µM

In order of falling relative viability:
1. NCI-H1703  1.39
2. NCI-H596  1.2
3. Calu-6  1.18
4. A549  1.08
5. HCC-44  1.05
6. LU99A  1.02
7. NCI-H1299  1.02
8. NCI-H838  1.01
9. IA-LM  0.997
10. SW 1573  0.966
11. EMC-BAC-2  0.955
12. COR-L23  0.92
13. NCI-H520  0.879
14. HOP-62  0.844
15. NCI-H1993  0.815
16. LOU-NH91  0.762
17. NCI-H2087  0.725
18. LK-2  0.703
19. NCI-H2085  0.681
20. NCI-H727  0.642
21. NCI-H1666  0.584
22. NCI-H1650  0.57
23. NCI-H2126  0.523
24. SK-MES-1  0.465
25. COR-L 105  0.328
26. NCI-H2170  0.301
27. H3255  0.238
28. EBC-1  0.226

Same assay, conditions: first compound 8 µM

In order of rising relative viability:
1. EBC-1  0.205
2. H3255  0.246
3. NCI-H2170  0.263
4. COR-L 105  0.333
5. NCI-H1650  0.351
6. SK-MES-1  0.45
7. NCI-H1666  0.508
8. LK-2  0.517
9. NCI-H1793  0.566
10. NCI-H520  0.59
11. IA-LM  0.664
12. NCI-H2085  0.685
13. LOU-NH91  0.702
14. NCI-H1993  0.748
15. NCI-H2126  0.753
16. HCC-44  0.825
17. NCI-H727  0.833
18. A549  0.858
19. EMC-BAC-2  0.879
20. NCI-H838  0.888
21. COR-L23  0.892
22. NCI-H1395  0.892
23. NCI-H1299  0.934
24. Calu-6  0.94
25. HOP-62  0.954
26. NCI-H1703  0.96
27. NCI-H2087  0.967
28. NCI-H596  0.989
29. LU99A  1
30. NCI-H2405  1.11
31. HCC-366  1.15
32. SW 1573  1.16

Compound: CC1=CC(=C(N1C2=CC=C(C=C2)Cl)C)C(=O)CN3CCCCC3 [IU1-47] + C[C@@H](Oc1cc(-c2cnn(C3CCNCC3)c2)cnc1N)c1c(Cl)ccc(F)c1Cl [Crizotinib] (partner 1 µM)
Test: as above
Conditions: first compound 0.08 µM
Outline: as §1

In order of falling relative viability:
1. NCI-H1650  0.978
2. NCI-H727  0.929
3. NCI-H1993  0.928
4. NCI-H1703  0.524
5. EBC-1  0.239
